Several values for one entry are separate records, joined by “and”; a condition that tells them apart may be missing. Equal entries are not always repeated.
Key:
[1] = tested on: CGNH-89 human glioblastoma; assay: Growth inhibition on glioblastoma in vivo, CGNH-89 transplanted subcutaneously in nude mice; conditions: 100 mg/kg intraperitoneally for 14 days vs PBS; days 11 and 13 after onset and days 2, 4, 6, 8 after completion of administration
Description: Nude mice (5-6 weeks old) were used at this experiment. 10^7 cells of CGNH-89 used in Example 1 were transplanted subcutaneously in the nude mice. On the next day of transplantation, the mice were divided randomly in two groups; a group (n=12) to be administered with 100 mg/kg compound A and a group (n=12) to be administered with PBS (phosphate buffered saline). The drug was administered repeatedly intraperitoneally for 14 days starting on the next day of transplantation. Up to day 8 after the completion of the administration, the mice were observed. The tumor size was measured every two days with a vernier micrometer, to calculate the volume according to the formula (length×width^2)×½.
The results are shown in mean±standard deviation and statistically analyzed by the Student's t-test. The significance level was set at p<0.05.

[2] = tested on: C6 and RG2 glioma; conditions: C6 and RG2 glioma transplanted rats; cited from earlier work
[3] = tested on: Human glioblastoma cell (CGNH-89 cell line); assay: Proliferation of human glioblastoma cells by Ki67 antibody staining in vitro; type: cell-based
Description: (§1) Human glioblastoma cell (CGNH-89 cell line) was used at this experiment. These cells were randomly divided in the following three groups: a group of a glutamate-free medium (no glutamate group; control group); a group of the glutamate-free medium added 100 μM glutamate (100 μM glutamate group); a group of the glutamate-free medium added 100 μM glutamate and 20 μM NBQX (100 μM glutamate+20 μM NBQX group). The cells were incubated for 48 hours. The CGNH-89 cell was cultured in DMEM (Dulbecco's modified Eagle's medium) supplemented with 10% dialyzed fetal calf serum.
(§2) CGNH-89 cell line was established through resection from the tumor at the right front lobe of a person according to the Explant method by Nicolas et al. (Science 196, 60-63, 1977). […] Additionally, the mRNAs of GluR1 through GluR4 were analyzed with antibodies against the AMPA receptor subunits GluR1, GluR2, GluR3 and GluR4 and RT-PCR. Consequently, the cell line expresses GluR1 and GluR4 but not expresses GluR2 and GluR3. As described above, the cell line has the same profile as that of the cell of primary glioblastoma de novo.
(§3) The anti-tumor action was evaluated by calculating the apoptosis score by TUNEL method (terminal deoxynucleotide transferase (TdT)-mediated dUTP nick end labeling) 48 hours after culturing. Additionally, proliferation of the human glioblastoma cell was evaluated, using the antibody Ki67.
(§4) The results are shown as mean±standard deviation and statistically analyzed by the Student's t-test. Significance level was set at p<0.05.

[4] = tested on: Human glioblastoma cell (CGNH-89 cell line); assay: Apoptosis by TUNEL method in human glioblastoma cells in vitro; type: cell-based
Description: as §1, §2, §3, §4

[5] = 20 μM NBQX + 100 μM glutamate, 48 hours incubation, mean±SD
[6] = 20 μM NBQX with 100 μM glutamate, 48 hours
[7] = 100 μM glutamate alone added to glutamate-free medium, 48 hours

O.O=C(O)Cn1c(=O)c(=O)[nH]c2cc([N+](=O)[O-])c(-n3ccnc3)cc21 [Compound A, [7-(1H-imidazol-1-yl)-6-nitro-2,3-dioxo-3,4-dihydroquinoxalin-1 (2H)-yl]acetic acid•monohydrate]
tumor growth inhibition (tumor volume) [1]: significant tumor growth inhibition

C[C@]12N[C@H](Cc3ccccc31)c1ccccc12 [MK-801]
proliferation inhibition [2]: exert a proliferation inhibition

NS(=O)(=O)c1cccc2c1c([N+](=O)[O-])cc1nc(O)c(O)nc12 [NBQX, 2,3-dihydroxy-6-nitro-7-sulfamoyl-benzo(F)-quinoxaline]
staining index with Ki-67 (proliferation inhibiting activity) [3, 5]: 2.0 ± 1.0%
effect on glutamate-induced proliferative activity [3, 6]: suppressed the glutamate-induced proliferative activity
TUNEL-SCORE (ratio of apoptosis) [4, 5]: 13.0 ± 2.0%
effect on glutamate-induced suppression of apoptosis [4, 6]: induced the apoptosis

N[C@@H](CCC(=O)O)C(=O)O [glutamate]
staining index with Ki-67 (proliferation inhibiting activity) [3, 7]: 18.5% and 18.5 ± 3.0%
TUNEL-SCORE (ratio of apoptosis) [4, 7]: 3% and 3.0 ± 2.0%

CC12CC3CC(C)(C1)CC(N)(C3)C2 [memantin]
proliferation inhibition [2]: exert a proliferation inhibition
